The text below walks through data of US7741280B2, “Multimeric molecules, the preparation method thereof and use of same for the preparation of medicaments” (Centre National de la Recherche Scientifique, priority 2002, dated 2010).

The subject of assay [1] is BL41 Burkitt's lymphoma cells. As to the kind of experiment: Inhibition of proliferation of BL41 cells (incorporation of tritiated thymidine). Conditions: 24 hours culture, FIG. 4A, 50 μM to 50 nM. The assay is classed as cell-based. Here is the method:
Tritiated thymidine was added at a concentration of 1 μci/well (0.8.10^5 cells/well) for the last 8 hours of culture and the incorporation of tritiated thymidine measured using a gaseous scintillation β counter.
(§1) The second test is based on the property of certain B lymphomas to cease proliferation and enter apoptosis during the bridging of their membranous CD40 molecule (Tong et al., 1999). In this test, the BL41 cells are incubated with ligands CD40 and after 24 hours either the inhibition of proliferation of these cells is measured, by studying the incorporation of tritiated thymidine, or the percentage of apoptotic cells is measured with a flow cytometry study (FIGS. 4A and 4B).
(§2) Certain B lymphomas enter apoptosis when their CD40 molecule is bridged by an anti-CD40 antibody or by CD40L which is soluble independently from the CD95 molecule. This induction of apoptosis is expressed as a decrease in proliferation measured by the incorporation of tritiated thymidine. The agonist ligands of CD40 will induce an increase in apoptosis and as a result a decrease in the incorporation of tritiated thymidine.
The BL41 Burkitt's lymphoma cells (4.10^5/mL) are cultured in the presence of the different ligands at the chosen concentration. After 24 hours, the cells are either incubated for 8 hours with tritiated thymidine (1 μci/well) to measure the proliferation or are labelled with Annexin V-FITC and propidium iodide to evaluate the percentage of apoptotic cells with flow cytometry.

In the next assay the target is T1, CD40-CD40L interaction (Homo sapiens, UniProt P25942).
T1 construct: they receive a signal via the CD40 molecule, which they express in a constitutive manner; endogenous in cells; host or cells: BL41 Burkitt's lymphoma cells (endogenous CD40), co-cultured with 3T6 fibroblasts transfected with CD40L
The assay can be described thus: Expression of CD95 induced by CD40L on BL41 cells cultured with 3T6-CD40L fibroblasts (flow cytometry). The assay is classed as cell-based. Particulars: for effect on the expression of CD95 induced by CD40L (in words): BL41 cells in the presence of 3T6-CD40L cells, no concentration stated; for % of inhibition of the expression of CD95 induced by CD40L: BL41 + 3T6-CD40L, 48 hours. On the procedure: Then, the affinity of these ligands for the CD40 molecule is evaluated using a biosensor (BIAcore™). The agonist or antagonist effect of the ligands was tested using two simple biological tests. In the first, the expression of the membranous molecule CD95 by transformed B cells (Burkitt's lymphoma) is studied after activation by the CD40-CD40L interaction (Schattner et al., 1996). In such a model, the CD40L partner is expressed on transfected fibroblasts (3T6-CD40L) (Buelens et al., 1997). The BL41 Burkitt's lymphoma cells are incubated with non-transfected 3T6 fibroblasts (FIGS. 3A and 3C) or with 3T6 fibroblasts transfected by CD40L (FIGS. 3B and 3D). After 48 hours, the expression of CD95 is evaluated by flow cytometry. The expression of CD95 is induced in the presence of CD40L (FIG. 3B). A commercial anti-CD40L antibody inhibits the consequences of the CD40-CD40L interaction (FIG. 3D).
The antagonist effect is evaluated by measurement of the decrease in the expression of CD95 induced by the CD40L in the presence of the different chemical ligands (see Table I). With the help of these tests, the most interesting ligands are chosen to evaluate their activity in vivo and in vitro in more complex models.
The lymphoma B cells express the CD95 molecule when they receive a signal via the CD40 molecule, which they express in a constitutive manner. This signal is generally conveyed by the CD40L (CD154) molecule expressed by another cell. The antagonist ligands inhibit the binding of CD40 on CD40L and thus […] the expression of CD95. The agonist ligands copy the CD40L molecule and induce the expression of CD95 even in the absence of the cell expressing CD40L.
The BL41 Burkitt's lymphoma cells (5.10^5/ml) are cultured in the presence of 3T6 fibroblasts (10^5/ml) transfected (3T6-CD40L) or not transfected with CD40L (3T6), and treated with mitomycin to stop their proliferation. The ligands are added at the start of the culture at the chosen concentration. After culture for 48 hours, expression of the CD95 molecule is measured by flow cytometry. The BL41 cells are distinguished from the fibroblasts using an anti-CD19 antibody (specific marker of the B cells).
For orientation: In flow cytometry, cells or beads pass a laser one at a time.

The target of assay [2] is T2, human CD40 muIg fusion protein (UniProt P01863+P25942).
T2 construct: purchased ANCELL Corporation, Bayport, Minn
As to the kind of experiment: Biacore3000 surface plasmon resonance study of the CD40/CD40L interaction and the ligands. The assay is classed as binding. Conditions: in the presence of 100 nM of CD40L. The source says: The Biacore3000 is a device which allows the interactions between two molecules to be studied, based on the surface plasmon resonance. It allows measurement in real time, and therefore allows the kinetics of interaction (association and disassociation) of an analyte (which is in an injected solution) and of a ligand (immobilised on a microchip supporting the measurement) to be monitored. The kinetic measurements at different concentrations of analyte allow calculation of the affinity constants of the interaction between the ligand and the analytes. The microchip contains four cells for different measurements, which allows direct comparison of a reference cell on which a protein which is not pertinent (protein which has no affinity with the ligand studied), but close to the ligand is immobilised with the cell on which the ligand is immobilised.
Rabbit antibodies directed against the constant region of mouse immunoglobulins were immobilized on a microchip. In the reference cell a monoclonal mouse antibody of isotype IgG2a (LG112) at 40 nM is immobilized with a flow of 5 μL/min for 2 minutes; in the cell of the ligand the recombinant CD40 associated with the constant region of the mouse IgG2a heavy chain (human CD40 muIg fusion protein, ANCELL Corporation, Bayport, Minn.) is immobilized under the same conditions.
On the two cells (reference and ligand), the CD40L (human CD154 muCD8 fusion protein, ANCELL Corporation) at different concentrations or the CD40L at a concentration of 1 μM or of 125 nM, are injected, as analyte, in the presence of different concentrations of ligands. The flow in the presence of the analytes is 10 μL/min for 5 minutes to study the association and, in the absence of analytes, the conditions are the same to study the dissociation.
In order to regenerate the cells (i.e. remove all the proteins adsorbed in a non-covalent manner), a solution of 10 mM of HCl is injected at 5 μL/min for 1 minute. The cells are then ready for another analysis.
In general terms: In SPR one partner is held on a chip, and binding of the other changes the refractive index at the surface.

The test system of assay [3] is BL41 Burkitt's lymphoma cells. The assay can be described thus: Apoptosis of BL41 cells (Annexin V-FITC / propidium iodide flow cytometry). The assay is classed as cell-based. Conditions: 24 hours culture, FIG. 4B, 50 to 6 μM. Here is the method: Apoptosis is measured by flow cytometry after labelling with annexin V FITC and propidium iodide. Cells labelled with annexin V alone or with annexin V and propidium iodide are considered apoptotic. The percentage of specific apoptosis is calculated by the following formula: [(% apoptosis with ligand−% apoptosis without ligand)/(100−% apoptosis without ligand)]×100
as §1, §2
The BL41 Burkitt's lymphoma cells (4.10^5/mL) are cultured in the presence of the different ligands at the chosen concentration. […]

The target of assay [4] is T3, human CD40 muIg fusion protein (recombinant CD40 associated with the constant region of the mouse IgG2a heavy … (human; mouse, UniProt P25942 21-193, limits assumed).
T3 construct: Bought reagent; Captured on the Biacore chip through rabbit anti-mouse immunoglobulin antibodies; not shown: constant region of the mouse IgG2a heavy chain
The assay can be described thus: SPR (Biacore 3000), kinetic analysis with 2.5 µM L3 in the presence of 125 nM CD40L over captured CD40 muIg. On the procedure: (§3) Rabbit antibodies directed against the constant region of mouse immunoglobulins were immobilized on a microchip. In the reference cell a monoclonal mouse antibody of isotype IgG2a (LG112) at 40 nM is immobilized with a flow of 5 µL/min for 2 minutes; in the cell of the ligand the recombinant CD40 associated with the constant region of the mouse IgG2a heavy chain (human CD40 muIg fusion protein, ANCELL Corporation, Bayport, Minn.) is immobilized under the same conditions.
(§4) The flow in the presence of the analytes is 10 µL/min for 5 minutes to study the association and, in the absence of analytes, the conditions are the same to study the dissociation.

In assay [5] the target is T3, human CD40 muIg fusion protein …. The assay can be described thus: SPR (Biacore 3000), inhibition of the binding of 100 nM CD40L to captured CD40 muIg. Here is the method:
as §3, §4
(§5) The association of L4, L7 (and of its derivatives), L8, L9 L11 and L12 was studied in the presence of 100 nM of CD40L. Only the L4 and L9 molecules bind to CD40 and displace CD40L. The kinetic analysis in the presence of 40 and 80 nM of L4 produced an equilibrium constant for L4 of 180 nM.

Assay [6] has the same target. As to the kind of experiment: SPR (Biacore 3000), kinetic analysis with 40 and 80 nM L4 in the presence of 100 nM CD40L over captured CD40 muIg. On the procedure:
as §3, §4, §5

Where no end group is shown, it is not given here. [ ]: non-standard residue; d: D form. β3hK = NCCCC[C@H](N)CC(=O)O; Ahx = NCCCCCC(=O)O

T1 sequence (P25942 21-277): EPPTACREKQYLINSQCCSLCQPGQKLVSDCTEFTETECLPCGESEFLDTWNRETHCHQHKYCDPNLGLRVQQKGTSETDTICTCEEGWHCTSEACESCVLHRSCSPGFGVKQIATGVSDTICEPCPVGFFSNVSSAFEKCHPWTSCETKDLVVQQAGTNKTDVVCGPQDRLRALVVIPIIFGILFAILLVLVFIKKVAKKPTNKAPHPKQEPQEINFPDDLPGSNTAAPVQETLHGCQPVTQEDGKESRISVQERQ
T3 sequence (P25942 21-193 limits assumed): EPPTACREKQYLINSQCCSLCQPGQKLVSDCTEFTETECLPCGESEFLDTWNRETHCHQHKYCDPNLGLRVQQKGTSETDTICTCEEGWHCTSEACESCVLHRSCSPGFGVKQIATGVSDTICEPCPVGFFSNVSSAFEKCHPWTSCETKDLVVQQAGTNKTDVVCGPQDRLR
T2 sequence (P25942+P01863 fused): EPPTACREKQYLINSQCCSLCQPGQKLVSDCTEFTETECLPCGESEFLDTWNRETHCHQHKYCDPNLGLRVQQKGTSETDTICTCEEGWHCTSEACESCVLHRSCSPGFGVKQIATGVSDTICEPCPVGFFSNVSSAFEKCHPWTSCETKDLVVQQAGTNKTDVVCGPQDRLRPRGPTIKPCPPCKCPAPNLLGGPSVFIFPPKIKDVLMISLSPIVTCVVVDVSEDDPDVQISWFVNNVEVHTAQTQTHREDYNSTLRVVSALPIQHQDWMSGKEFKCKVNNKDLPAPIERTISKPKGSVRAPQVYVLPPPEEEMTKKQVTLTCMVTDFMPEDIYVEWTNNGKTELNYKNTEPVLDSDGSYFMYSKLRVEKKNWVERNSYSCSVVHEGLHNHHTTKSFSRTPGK

For “L7-3: L7 analogue: replacement of the aminohexanoic acid spacer arm by a glycine (KGYYG; not fully specified (C-terminus); also: L7 analogue: aminohexanoic acid spacer replaced by glycine, core as L7)”, in assay [1], the “inhibition of the proliferation of BL41 cells (in words)” value (shortened to “inhibition … (in words)”) was “only have a small or no effect”.

In the case of `NCCCC[C@H](N)C(=O)NCC(=O)N[C@@H](Cc1ccc(O)cc1)C(=O)N[C@@H](Cc1ccc(O)cc1)C(=O)NCCCCCC(=O)NCCCOCC(COCCCNC(=O)CCCCCNC(=O)[C@H](Cc1ccc(O)cc1)NC(=O)[C@H](Cc1ccc(O)cc1)NC(=O)CNC(=O)[C@@H](N)CCCCN)(COCCCNC(=O)CCCCCNC(=O)[C@H](Cc1ccc(O)cc1)NC(=O)[C@H](Cc1ccc(O)cc1)NC(=O)CNC(=O)[C@@H](N)CCCCN)NC(=O)CCC(N)=O` [L7], at CD40-CD40L interaction, the “effect on the expression of CD95 induced by CD40L (in words)” value is “no effect”. In addition, the “% of inhibition of the expression of CD95 induced by CD40L” value at CD40-CD40L interaction (ligand 0.5 μM), on CD40-CD40L interaction (ligand 5 μM) and at CD40-CD40L interaction (ligand 50 μM) was 0% throughout. The “inhibition … (in words)” value in assay [1] is reported as “only have a small or no effect”. In addition, the “binding to CD40 and displacement of CD40L (in words)” value in assay [2] is “Only the L4 and L9 molecules bind to CD40”.

As for “L11: constituted by the single peptide sequence (KGYY-{Ahx-OH})”, in assay [3], the “apoptosis of BL41 cells (in words)” value was “no effect”. For the same molecule, the “binding to CD40 and displacement of CD40L (in words)” value in assay [2] was “Only the L4 and L9 molecules bind to CD40”.

Turning to “L4a: same core molecule as L4 but only 2 examples of the peptide sequence (chain [dA]K[dA]K[dA]K; peptide H-KGYY[Ahx]; also: two copies of chain 2 linked via Ahx to two Lys ε-amines of chain 1, which Lys not given here, head-to-tail to a chain's N/C-terminus)”, the “effect on the expression of CD95 induced by CD40L (in words)” value with CD40-CD40L interaction was “only very weakly inhibits”. In addition, the figures for the “% of inhibition of the expression of CD95 induced by CD40L” value in the assay with CD40-CD40L interaction (ligand 0.5 μM), with CD40-CD40L interaction (ligand 5 μM) and with CD40-CD40L interaction (ligand 50 μM) were 0%, 8% and 13%, respectively. Further, the “apoptosis of BL41 cells (in words)” value in assay [3] is “very weak apoptosis”.

As to “L7-2: L7 analogue with the reverse sequence H-Tyr-Tyr-Gly-Lys- (YYGK)”, the “inhibition … (in words)” value in assay [1] was “only have a small or no effect”.

B1: Compound L3 (ligand L3) (peptide)
chain: KKKKA
peptide: KGYY
modifications: also: core Lys joined through epsilon-amines (isopeptide bonds), KGYY arms on free amines of core Lys, Tyr C-terminus amide-linked directly to core amine, no spacer
notes: also called linear ligand
By Kd is commonly meant a measure of binding affinity in units of concentration. Regarding B1, the Kd in assay [4] worked out at 10 µM.

B2: Compound L4 (ligand L4): cyclic core structure with 3 examples of the peptide sequence mimicking the CD40-CD40L interface (peptide)
chain: [dA]K[dA]K[dA]K
peptide: H-KGYY[Ahx]
modifications: also: three H-KGYY-Ahx- arms, one on the epsilon-amine of each core Lys, head-to-tail to a chain's N/C-terminus
What is called IC50 is the midpoint of a concentration-inhibition curve. As to B2, the IC50 in assay [5] was found to be 80 nM. In assay [6], the Kd worked out at 180 nM.

B3: soluble CD40L: soluble CD40L molecule used as positive control on BL41 cells (protein)
chain: MQKGDQNPQIAAHVISEASSKTTSVLQWAEKGYYTMSNNLVTLENGKQLTVKRQGLYYIYAQVTFCSNREASSQAPFIASLCLKSPGRFERILLRAANTHSSAKPCGQQSIHLGGVFELQPGASVFVNVTDPSQVSHGTGFTSFGLLKL
Take B3: the “inhibition … (in words)” value in assay [1] was “greatly inhibits”.

B4: Compound L9 (ligand L9): cyclic core structure different from that of L4 with 3 examples of the same peptide sequence (peptide)
chain: [β3hK]-[β3hK]-[β3hK]
peptide: H-KGYY[Ahx]
modifications: also: three H-KGYY-Ahx- arms, one on each side-chain amine of the core, head-to-tail to a chain's N/C-terminus
For B4, in assay [5], the 50% inhibitory concentration (IC50) is less than 50 nM.
